According to patent publication US8691816B2, “Pyrrole inhibitors of S-nitrosoglutathione reductase as therapeutic agents” (N30 Pharmaceuticals, Inc., priority 2008, dated 2014):
Read-outs that look alike come from different tables or passages of the source.

What was measured:
[1] = system: mouse model of ovalbumin (OVA)-induced asthma; assay: Experimental asthma model: methacholine (MCh)-induced bronchoconstriction/airway hyper-reactivity (Penh) in ovalbumin (OVA)-induced asthma; type: in vivo; conditions: for efficacy against experimental asthma (attenuation of MCh induced bronchoconstriction): administered intravenously (IV); for response vs control in vivo at 1 mg/kg: single IV dose 1 mg/kg; for response vs control in vivo at 30 mg/kg: single oral dose 30 mg/kg; for efficacy against experimental asthma (attenuation of MCh induced bronchoconstriction and pulmonary inflammation): administered intravenously (IV) or orally; for response vs control in vivo at 10 mg/kg: single IV dose 10 mg/kg; for response vs control in vivo at 0.1 mg/kg: single IV dose 0.1 mg/kg
Experimental: (§1) A mouse model of ovalbumin (OVA)-induced asthma was used to screen GSNOR inhibitors for efficacy against methacholine (MCh)-induced bronchoconstriction/airway hyper-reactivity. This is a widely used and well characterized model that presents with an acute, allergic asthma phenotype with similarities to human asthma. Efficacy of GSNOR inhibitors were assessed using a prophylactic protocol in which GSNOR inhibitors were administered prior to challenge with MCh. Bronchoconstriction in response to challenge with increasing doses of MCh was assessed using whole body plethysmography (Penh; Buxco). The amount of eosinophil infiltrate into the bronchioalveolar lavage fluid (BALF) was also determined as a measure of lung inflammation. The effect of GSNOR inhibitors were compared to vehicles and to Combivent (inhaled; IH) as the positive control.
(§2) OVA (500 μg/ml) in PBS was mixed with equal volumes of 10% (w/v) aluminum potassium sulfate in distilled water and incubated for 60 min. at room temperature after adjustment to pH 6.5 using 10 N NaOH. After centrifugation at 750×g for 5 min, the OVA/alum pellet was resuspended to the original volume in distilled water. Mice received an intraperitoneal (IP) injection of 100 μg OVA (0.2 mL of 500 μg/mL in normal saline) complexed with alum on day 0. Mice were anesthetized by IP injection of a 0.2-mL mixture of ketamine and xylazine (0.44 and 6.3 mg/mL, respectively) in normal saline and were placed on a board in the supine position. Two hundred fifty micrograms (100 μl of a 2.5 mg/ml) of OVA (on day 8) and 125 μg (50 μl of 2.5 mg/ml) OVA (on days 15, 18, and 21) were placed on the back of the tongue of each animal.
In vivo airway responsiveness to methacholine was measured 24 h after the last OVA challenge in conscious, freely moving, spontaneously breathing mice with whole body plethysmography using a Buxco chamber (Wilmington, N.C.). Mice were challenged with aerosolized saline or increasing doses of methacholine (5, 20 and 50 mg/mL) generated by an ultrasonic nebulizer for 2 min. The degree of bronchoconstriction was expressed as enhanced pause (Penh), a calculated dimensionless value, which correlates with the measurement of airway resistance, impedance, and intrapleural pressure in the same mouse. Penh readings were taken and averaged for 4 min. after each nebulization challenge. Penh was calculated as follows: Penh=[(Te/Tr−1)×(PEF/PIF)], where Te is expiration time, Tr is relaxation time, PEF is peak expiratory flow, and PIF is peak inspiratory flow×0.67 coefficient. The time for the box pressure to change from a maximum to a user-defined percentage of the maximum represents the relaxation time. The Tr measurement begins at the maximum box pressure and ends at 40%.
(§3) GSNOR inhibitors were reconstituted in phosphate buffered saline (PBS), pH 7.4, at concentrations ranging from 0.00005 to 3 mg/mL. GSNOR inhibitors were administered to mice (10 mL/kg) as a single dose either intravenously (IV) or orally via gavage. Dosing was performed from 30 min. to 24 h prior to MCh challenge. Effect of GSNOR inhibitors were compared to PBS vehicle dosed in the same manner.
Combivent was used as the positive control in all studies. Combivent (Boehringer Ingelheim) was administered to the lung using the inhaler device supplied with the product, but adapted for administration to mice, using a pipet tip. Combivent was administered 48 h, 24 h, and 1 h prior to MCh challenge. Each puff (or dose) of Combivent provided a dose of 18 μg ipatropium bromide (IpBr) and 103 μg albuterol sulfate or approximately 0.9 mg/kg IpBr and 5 mg/kg albuterol.
Area under the curve values for Penh across baseline, saline, and increasing doses of MCh challenge were calculated using GraphPad Prism 5.0 (San Diego, Calif.) and expressed as a percent of the respective (IV or orally administered) vehicle control.

[2] = system: mouse model of ovalbumin (OVA)-induced asthma; assay: Experimental asthma model: eosinophil infiltrate in bronchioalveolar lavage fluid (BALF); type: in vivo
Experimental: as §1, §2
After measurement of airway hyper-reactivity, the mice were exsanguination by cardiac puncture, and then BALF was collected from either both lungs or from the right lung after tying off the left lung at the mainstem bronchus. Total BALF cells were counted from a 0.05 mL aliquot, and the remaining fluid is centrifuged at 200×g for 10 min at 4° C. Cell pellets were resuspended in saline containing 10% BSA with smears made on glass slides. Eosinophils were stained for 5 min. with 0.05% aqueous eosin and 5% acetone in distilled water, rinsed with distilled water, and counterstained with 0.07% methylene blue.
as §3
Area under the curve values for Penh across baseline, saline, and increasing doses of MCh challenge were calculated using GraphPad Prism 5.0 (San Diego, Calif.) and expressed as a percent of the respective (IV or orally administered) vehicle control. Statistical differences among treatment groups and the respective vehicle control group within each study were calculated using one-way ANOVA, Dunnetts (JMP 8.0, SAS Institute, Cary, N.C.).

[3] = system: OVA sensitized mice, methacholine-induced bronchial hyper-reactivity; assay: GSNOR inhibition assay in an in vivo animal model: OVA mouse model of asthma, methacholine challenge, Penh by whole body plethysmograph; conditions: 1 mg/kg, 10 mg/kg or 30 mg/kg intravenously 24 hours prior
Experimental: In an effort to determine if similar observations would manifest if GSNOR were inhibited pharmacologically by a GSNOR inhibitor, an OVA mouse model (i.e., the wild-type model of Que et al.) was used. In this study, OVA sensitized mice were administered 1 mg/kg, 10 mg/kg or 30 mg/kg of Compound 1 intravenously at 24 hours prior to being placed in a whole body plethysmograph (Buxco Research Systems, Wilmington, N.C.) and provided with fresh air.
Subject animals were then challenged with an aerosol of increasing dosages of the bronchoconstrictive agent methacholine, a pharmacologic agent commonly used in determining the degree of bronchial hyper-reactivity in experimental subjects. In this study mice were exposed to an increasing concentration of methacholine, each dose being presented for 3 minutes, during which time readings were taken. Doses of methacholine were 0 mg/ml, 5 mg/ml, 20 mg/ml, and 50 mg/ml. The degree of bronchial hyper-reactivity was measured as the ‘Enhanced Pause’ (Penh), a unit-less index of airway hyper-reactivity (Dohi et al., Lab Invest. 79(12):1559-1571, 1999).

[4] = system: mouse model of ovalbumin (OVA)-induced asthma; assay: Experimental asthma model: methacholine (MCh)-induced bronchoconstriction/airway hyper-reactivity (Penh) in ovalbumin (OVA)-induced asthma; type: in vivo; conditions: single IV dose 0.1 mg/kg, 48 h prior to MCh, read-out: area under the curve (AUC) for Penh response as percent of vehicle control
[5] = Mus musculus, 24 h prior to MCh, read-out: area under the curve (AUC) for Penh response as percent of vehicle control
[6] = single IV dose 1 mg/kg, 24 h prior to MCh
[7] = single oral dose 30 mg/kg, 24 h prior to MCh

With `Cc1cc(C(N)=O)ccc1-n1c(CCC(=O)O)ccc1-c1ccc(Br)cc1` [Compound 12, 3-(5-(4-bromophenyl)-1-(4-carbamoyl-2-methylphenyl)-1H-pyrrol-2-yl)propanoic acid] the “efficacy against experimental asthma (attenuation of MCh induced bronchoconstriction)” value [1] was “efficacious”.

`COc1ccc(-c2ccc(CCC(=O)O)n2-c2ccc(C(N)=O)cc2C)cc1` [Compound 9, 3-(1-(4-carbamoyl-2-methylphenyl)-5-(4-methoxy-phenyl)-1H-pyrrol-2-yl)propanoic acid] was tested, and the response vs control in vivo at 1 mg/kg [1, 5] was 65.3 ± 5.9%, the response vs control in vivo at 30 mg/kg [1, 5] was 24.6 ± 3% and the “efficacy against experimental asthma (attenuation of MCh induced bronchoconstriction and pulmonary inflammation)” value [1] was “efficacious”. The “reduction of eosinophil infiltration into the BALF” value (“reduction” below) [2, 6] was 92% and the “reduction” value [2, 7] was 100%.

Compound `COc1cc(Cl)ccc1-c1ccc(CCC(=O)O)n1-c1ccc(C(N)=O)cc1C` [Compound 116, 3-(1-(4-carbamoyl-2-methylphenyl)-5-(4-chloro-2-methoxy-phenyl)-1H-pyrrol-2-yl)propanoic acid] has a response vs control in vivo at 10 mg/kg ([1]; Mus musculus, 0.5 h, 30 min. prior to MCh, read-out: area under the curve (AUC) for Penh response as percent of vehicle control) of 35.2 ± 9.3%, a response vs control in vivo at 0.1 mg/kg [1, 5] of 64.2 ± 7.6% and a response vs control in vivo at 1 mg/kg [1, 5] of 60.2 ± 7.9%. For the same compound, the response vs control in vivo at 10 mg/kg [1, 5] was 40.7 ± 2.4%, the response vs control in vivo at 30 mg/kg [1, 5] was 26.7 ± 1.4% and the “efficacy against experimental asthma (attenuation of MCh induced bronchoconstriction and pulmonary inflammation)” value [1] was “efficacious”. The “reduction” value ([2]; single IV dose 0.1 mg/kg, 24 h prior to MCh) was 79%, the “reduction” value [2, 6] was 100% and the “reduction” value ([2]; single IV dose 10 mg/kg, 30 min. prior to MCh) was 94%. For the same compound, the “reduction” value ([2]; single IV dose 10 mg/kg, 24 h prior to MCh) was 100% and the “reduction” value [2, 7] was 100%.

For `Cc1cc(NS(C)(=O)=O)ccc1-n1c(CCC(=O)O)ccc1-c1ccc(-n2ccnc2C)s1` [Compound 171, 3-(5-(5-(2-methyl-1H-imidazol-1-yl)thiophen-2-yl)-1-(2-methyl-4-(methyl-sulfonamido)-phenyl)-1H-pyrrol-2-yl)propanoic acid], the response vs control in vivo at 1 mg/kg [1, 5] was 78.7 ± 8.1%, the “efficacy against experimental asthma (attenuation of MCh induced bronchoconstriction)” value [1] was “efficacious” and the “reduction” value [2, 6] was 63%.

With `Cc1cc(C(N)=O)ccc1-n1c(CCC(=O)O)ccc1-c1ccc(-n2ccnc2)cc1` [Compound 1, 3-(5-(4-(1H-imidazol-1-yl)phenyl)-1-(4-carbamoyl-2-methyl-phenyl)-1H-pyrrol-2-yl)propanoic acid] the “broncho-constrictive responses (Penh) to methacholine challenge compared with vehicle-only dosed animals” value [3] was “lower broncho-constrictive responses”, the ED50 ([1]; Mus musculus, iv, read-out: ED50, dose demonstrating 50% reduction in Penh response) was 0.011 ± 0.003 mg/kg and the response vs control in vivo at 0.01 mg/kg ([1]; Mus musculus, single IV dose 0.01 mg/kg, 24 h prior to MCh, read-out: area under the curve (AUC) for Penh response as percent of vehicle control) was 42.1 ± 2.8%. The response vs control in vivo at 0.1 mg/kg ([1]; Mus musculus, 1 h prior to MCh, read-out: area under the curve (AUC) for Penh response as percent of vehicle control) was 76.4 ± 6.6%, the “efficacy against experimental asthma (attenuation of MCh induced bronchoconstriction)” value [1] was “efficacious” and the response vs control in vivo at 0.1 mg/kg [4] was 64.4 ± 55%. For the same compound, the “reduction” value ([2]; single IV dose 0.01 mg/kg, 24 h prior to MCh) was 98%.

For `Cc1cc(C(N)=O)ccc1-n1c(CCC(=O)O)ccc1-c1ccc(-n2ccnc2C)cc1` [Compound 3, 3-(1-(4-carbamoyl-2-methyl-phenyl)-5-(4-(2-methyl-1H-imidazol-1-yl)phenyl)-1H-pyrrol-2-yl)propanoic acid], the response vs control in vivo at 1 mg/kg [1, 5] was 71 ± 8.6%, the “efficacy against experimental asthma (attenuation of MCh induced bronchoconstriction)” value [1] was “efficacious” and the “reduction” value [2, 6] was 46%.
